Results published in ChEMBL document CHEMBL1157538, “Discovery of a potent, selective, and orally bioavailable c-Met inhibitor: 1-(2-hydroxy-2-methylpropyl)-N-(5-(7-methoxyquinolin-4-yloxy)pyridin-2-yl)-5-methyl-3-oxo-2-phenyl-2,3-dihydro-1H-pyrazole-4-carboxamide (AMG 458)” (J Med Chem, 2008).

Columns and labels:
[1] = target: Tyrosine-protein kinase Lyn (Homo sapiens, UniProt P07948); experiment: Inhibition of Lyn
[2] = Antitumor activity in human U87MG cells xenografted orally dosed CD1 NU/NU mouse assessed as tumor growth inhibition after 14 days; type: functional, U-87MG ATCC; details: U-87 MG, po, 336 h
[3] = Apparent permeability across pig LLC-PK1 cells; type: ADME, cell-based, Sus scrofa; details: read-out: permeability
[4] = Inhibition of RON
[5] = target: Tyrosine-protein kinase Fgr (Homo sapiens, UniProt P09769); experiment: Inhibition of FGR
[6] = Volume of distribution at steady state in Beagle dog at 1 mg/kg, iv or 10 mg/kg, po; type: ADME, organism-based, Canis lupus familiaris; details: in vivo, read-out: Vdss
[7] = target: Macrophage colony-stimulating factor 1 receptor (Homo sapiens, UniProt P07333)
[8] = Inhibition of PDGF
[9] = target: Tyrosine-protein kinase Blk (Homo sapiens, UniProt P51451); experiment: Inhibition of BLK
[10] = Half life in Beagle dog at 1 mg/kg, iv or 10 mg/kg, po; type: ADME, organism-based, Canis lupus familiaris; details: in vivo
[11] = Terminal half life in Sprague-Dawley rat; type: ADME, organism-based; details: in vivo, read-out: beta t1/2
[12] = Half life in BALB/c mouse at 1 mg/kg, iv or 10 mg/kg, po; type: ADME, organism-based; details: in vivo
[13] = Volume of distribution at steady state in Sprague-Dawley rat at 1 mg/kg, iv or 10 mg/kg, po; type: ADME, organism-based; details: in vivo
Mus musculus [14] = experiment: Toxicity in human U87MG cells xenografted CD1 NU/NU mouse assessed as effect on body weight at 30 mg/kg and 100 mg/kg, qd for 14 days; type: organism-based, U-87MG ATCC; details: in vivo, 336 h
[15] = Clearance in Sprague-Dawley rat at 1 mg/kg, iv or 10 mg/kg, po; type: ADME, organism-based; details: in vivo
[16] = target: Hepatocyte growth factor receptor (Homo sapiens, UniProt P08581, H1094R); experiment: Inhibition c-Met H1094R mutant by HTRF assay
[17] = Intrinsic clearance in Sprague-Dawley rat liver microsome; type: ADME; details: liver microsomes
[18] = target: T1, Hepatocyte growth factor receptor (Mus musculus, UniProt P16056); experiment: Inhibition of mouse c-Met by HTRF assay
[19] = Half life in Sprague-Dawley rat at 1 mg/kg, iv or 10 mg/kg, po; type: ADME, organism-based; details: in vivo
[20] = target: T2, Cytoplasmic tyrosine-protein kinase BMX (Homo sapiens, UniProt P51813); experiment: Inhibition of BMX
T2 sequence (P51813 whole entry): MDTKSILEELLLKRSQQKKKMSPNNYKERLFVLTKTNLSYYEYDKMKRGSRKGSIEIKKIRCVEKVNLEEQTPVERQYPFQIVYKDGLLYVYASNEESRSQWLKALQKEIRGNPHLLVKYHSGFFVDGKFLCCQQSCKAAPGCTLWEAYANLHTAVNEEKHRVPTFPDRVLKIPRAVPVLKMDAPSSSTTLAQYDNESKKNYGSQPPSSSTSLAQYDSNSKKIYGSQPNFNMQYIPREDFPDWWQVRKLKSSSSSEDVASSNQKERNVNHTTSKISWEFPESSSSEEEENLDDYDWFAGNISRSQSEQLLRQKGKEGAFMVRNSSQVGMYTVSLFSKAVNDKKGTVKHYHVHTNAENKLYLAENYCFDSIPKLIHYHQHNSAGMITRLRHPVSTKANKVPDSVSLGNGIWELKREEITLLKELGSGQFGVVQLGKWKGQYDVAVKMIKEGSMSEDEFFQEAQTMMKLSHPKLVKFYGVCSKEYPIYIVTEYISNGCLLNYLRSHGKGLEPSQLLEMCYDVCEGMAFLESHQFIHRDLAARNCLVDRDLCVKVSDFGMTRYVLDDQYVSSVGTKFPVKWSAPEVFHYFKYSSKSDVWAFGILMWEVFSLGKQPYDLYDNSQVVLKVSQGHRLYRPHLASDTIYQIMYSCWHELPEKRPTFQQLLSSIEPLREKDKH

[21] = Clearance in BALB/c mouse at 1 mg/kg, iv or 10 mg/kg, po; type: ADME, organism-based; details: in vivo
[22] = target: T3, Hepatocyte growth factor receptor (Homo sapiens, UniProt P08581); experiment: Inhibition of human c-Met by HTRF assay
[23] = Inhibition c-Met […] mutant
[24] = Oral bioavailability in Sprague-Dawley rat at 10 mg/kg; type: ADME, organism-based; details: in vivo
NIH3T3 = experiment: Antitumor activity in TPR-Met expressing […] NIH3T3 cells xenografted in po dosed mouse assessed as tumor growth inhibition after 24 hrs; type: functional
[25] = target: Hepatocyte growth factor receptor (Homo sapiens, UniProt P08581, M1250T); experiment: Inhibition c-Met M1250T mutant by HTRF assay
[26] = Permeability from apical to basolateral side of human Caco-2 cell monolayer; type: ADME, cell-based; details: read-out: permeability
[27] = Clearance in Beagle dog at 1 mg/kg, iv or 10 mg/kg, po; type: ADME, organism-based, Canis lupus familiaris; details: in vivo
[28] = target: Tyrosine-protein kinase Fes/Fps (Homo sapiens, UniProt P07332); experiment: Inhibition of FES
[29] = Oral bioavailability in BALB/c mouse at 10 mg/kg; type: ADME, organism-based; details: in vivo
[30] = Oral bioavailability in Beagle dog at 10 mg/kg; type: ADME, organism-based, Canis lupus familiaris; details: in vivo
[31] = target: Tyrosine-protein kinase CSK (Homo sapiens, UniProt P41240); experiment: Inhibition of CSK
Mus musculus [32] = experiment: Toxicity in human U87MG cells xenografted CD1 NU/NU mouse assessed as effect on body weight at 30 mg/kg BID for 14 days; type: organism-based, U-87MG ATCC; parameters: dose 30 mg/kg; details: in vivo, 336 h
[33] = Terminal half life in BALB/c mouse; type: ADME, organism-based; details: in vivo, read-out: beta t1/2
[34] = Inhibition of Aurora1
[35] = target: Hepatocyte growth factor receptor (Homo sapiens, UniProt P08581, D1228H); experiment: Inhibition c-Met D1228H mutant by HTRF assay
[36] = Drug level in po dosed BALB/c mouse plasma after 6 hrs; type: ADME, organism-based
[37] = Intrinsic clearance in human liver microsome; type: ADME; details: liver microsomes
[38] = target: T3, Hepatocyte growth factor receptor; experiment: Inhibition of HGF-mediated c-Met phosphorylation in human PC3 cells; type: cell-based, PC-3
[39] = Volume of distribution at steady state in BALB/c mouse at 1 mg/kg, iv or 10 mg/kg, po; type: ADME, organism-based; details: in vivo, read-out: Vdss
[40] = Intrinsic clearance in cynomolgus monkey liver microsome; type: ADME, Macaca fascicularis; details: liver microsomes
[41] = Clearance in cynomolgus monkey at 1 mg/kg, iv or 10 mg/kg, po; type: ADME, organism-based, Macaca fascicularis; details: in vivo
Mus musculus [42] = experiment: Inhibition of HGF-mediated c-Met phosphorylation in po dosed BALB/c mouse liver after 6 hrs; type: functional
[43] = target: Hepatocyte growth factor receptor (Homo sapiens, UniProt P08581, Y1230H); experiment: Inhibition c-Met Y1230H mutant by HTRF assay
[44] = Intrinsic clearance in BALB/c mouse liver microsome; type: ADME; details: liver microsomes
[45] = Intrinsic clearance in Beagle dog liver microsome; type: ADME, Canis lupus familiaris; details: liver microsomes
[46] = target: T4, Receptor-type tyrosine-protein kinase FLT3 (Homo sapiens, UniProt P36888); experiment: Inhibition of FLT3
T4 sequence (P36888 whole entry): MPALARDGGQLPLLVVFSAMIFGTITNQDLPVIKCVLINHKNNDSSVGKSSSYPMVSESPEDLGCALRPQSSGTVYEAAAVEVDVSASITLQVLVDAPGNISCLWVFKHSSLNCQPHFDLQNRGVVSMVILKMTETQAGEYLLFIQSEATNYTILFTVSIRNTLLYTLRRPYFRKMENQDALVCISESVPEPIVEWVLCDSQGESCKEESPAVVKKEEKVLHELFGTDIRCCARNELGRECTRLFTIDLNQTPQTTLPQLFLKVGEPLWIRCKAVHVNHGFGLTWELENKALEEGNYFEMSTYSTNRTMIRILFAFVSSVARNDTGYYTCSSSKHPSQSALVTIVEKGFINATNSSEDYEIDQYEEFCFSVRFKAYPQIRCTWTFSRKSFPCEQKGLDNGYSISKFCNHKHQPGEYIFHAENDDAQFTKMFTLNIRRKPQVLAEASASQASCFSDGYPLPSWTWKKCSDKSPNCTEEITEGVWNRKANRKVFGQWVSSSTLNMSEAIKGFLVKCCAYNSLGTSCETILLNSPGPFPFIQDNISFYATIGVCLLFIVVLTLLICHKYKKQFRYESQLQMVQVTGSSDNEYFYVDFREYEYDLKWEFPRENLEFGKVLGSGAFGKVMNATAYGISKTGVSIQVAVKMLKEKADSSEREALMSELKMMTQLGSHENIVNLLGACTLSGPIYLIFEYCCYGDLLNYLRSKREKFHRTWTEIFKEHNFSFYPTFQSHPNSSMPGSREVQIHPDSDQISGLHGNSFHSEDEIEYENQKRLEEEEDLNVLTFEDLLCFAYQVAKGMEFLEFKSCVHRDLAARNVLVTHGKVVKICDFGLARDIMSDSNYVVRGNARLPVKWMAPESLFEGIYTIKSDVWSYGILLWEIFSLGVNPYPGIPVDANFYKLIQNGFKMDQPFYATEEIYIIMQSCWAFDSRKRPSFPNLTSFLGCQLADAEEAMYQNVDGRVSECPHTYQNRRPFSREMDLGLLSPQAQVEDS

[47] = target: T5, Tyrosine-protein kinase ITK/TSK (Homo sapiens, UniProt Q08881); experiment: Inhibition of ITK
T5 sequence (Q08881 whole entry): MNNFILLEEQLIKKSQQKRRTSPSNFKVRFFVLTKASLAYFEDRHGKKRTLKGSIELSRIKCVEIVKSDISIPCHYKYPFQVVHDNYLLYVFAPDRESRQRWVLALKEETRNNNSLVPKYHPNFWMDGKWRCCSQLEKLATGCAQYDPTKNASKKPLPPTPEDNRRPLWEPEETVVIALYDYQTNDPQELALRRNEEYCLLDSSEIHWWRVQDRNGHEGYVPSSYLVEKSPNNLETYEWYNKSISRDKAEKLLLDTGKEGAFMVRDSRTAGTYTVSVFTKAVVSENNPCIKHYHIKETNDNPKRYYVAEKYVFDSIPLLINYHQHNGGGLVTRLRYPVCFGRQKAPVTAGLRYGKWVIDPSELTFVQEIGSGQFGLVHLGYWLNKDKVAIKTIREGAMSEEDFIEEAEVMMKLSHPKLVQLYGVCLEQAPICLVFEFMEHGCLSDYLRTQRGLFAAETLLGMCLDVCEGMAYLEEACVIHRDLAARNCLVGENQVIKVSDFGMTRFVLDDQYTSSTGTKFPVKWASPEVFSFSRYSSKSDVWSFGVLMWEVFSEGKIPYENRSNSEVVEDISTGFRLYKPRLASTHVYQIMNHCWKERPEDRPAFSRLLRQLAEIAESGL

[48] = Half life in cynomolgus monkey at 1 mg/kg, iv or 10 mg/kg, po; type: ADME, organism-based, Macaca fascicularis; details: in vivo
[49] = Oral bioavailability in cynomolgus monkey at 10 mg/kg; type: ADME, organism-based, Macaca fascicularis; details: in vivo
[50] = target: T1, Hepatocyte growth factor receptor; experiment: Inhibition of HGF-mediated c-Met phosphorylation in mouse CT26 cells; type: cell-based
[51] = Volume of distribution at steady state in cynomolgus monkey at 1 mg/kg, iv or 10 mg/kg, po; type: ADME, organism-based, Macaca fascicularis; details: in vivo, read-out: Vdss

COc1ccc2c(Oc3ccc(NC(=O)c4c(C)n(CC(C)(C)O)n(-c5ccccc5)c4=O)nc3)ccnc2c1
IC50 [1]: 506 nM | ED50 [2]: 16 mg/kg | ED90 [2]: 59 mg/kg | Papp [3]: 27 ×10⁻⁶ cm/s | IC50 [4]: 8 nM | IC50 [5]: 328 nM | Vd [6]: 0.75 L/kg | IC50 [7]: 238 nM | IC50 [8]: 120 nM | IC50 [9]: 519 nM | half-life [10]: 2.8 h | half-life [11]: < 2 h | half-life [12]: 1.3 h | Vd [13]: 0.62 L/kg | Activity (Mus musculus [14]): Non-toxic | clearance [15]: 12.2 mL/min/kg | Ki [16]: 0.5 nM | microsomal CLint [17]: 62 µL/min/mg | Ki [18]: 2 nM | half-life [19]: 1 h | IC50 [20]: 363 nM | clearance [21]: 2.67 mL/min/kg | Ki [22]: 1.2 nM | Ki [23]: 1.1 nM | bioavailability [24]: 100% | ED50 (NIH3T3): 12 mg/kg | ED90 (NIH3T3): 34 mg/kg | Ki [25]: 4.1 nM | Papp A→B [26]: 32 ×10⁻⁶ cm/s | clearance [27]: 5.67 mL/min/kg | IC50 [28]: 706 nM | bioavailability [29]: 100% | bioavailability [30]: 100% | IC50 [31]: 165 nM | Activity (Mus musculus [32]): Non-toxic | half-life [33]: < 2 h | IC50 [34]: 280 nM | Ki [35]: 2.2 nM | concentration at 6 h [36]: 15 µM | microsomal CLint [37]: 18 µL/min/mg | IC50 [38]: 60 nM | Vd [39]: 0.31 L/kg | microsomal CLint [40]: 8 µL/min/mg | clearance [41]: 1.67 mL/min/kg | ED90 (Mus musculus [42]): 30 mg/kg | Ki [43]: 4.5 nM | microsomal CLint [44]: < 5 µL/min/mg | microsomal CLint [45]: 8 µL/min/mg | IC50 [46]: 391 nM | IC50 [47]: 62 nM | half-life [48]: 5.7 h | bioavailability [49]: 78% | IC50 [50]: 120 nM | Vd [51]: 0.56 L/kg
